Experimental data taken from US20150094294A1, “COMPOUNDS AND METHODS FOR TREATING MALARIA” (Cellceutix Corporation, priority 2012, published 2015).
One block for each compound: values may come before it.

How the values were obtained:
Assay type in all cases: cell-based
[1] = tested on: P. falciparum 3D7 (chloroquine-sensitive); assay: Anti-malarial activity, P. falciparum 3D7 culture, 72 hour, DNA content by flow cytometry; details: synchronized ring-stage parasites
Outline: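 Magnet-synchronized ring-stage parasites in RPMI 1640/Albumax II were plated at 0.5% parasitemia, 4% final hematocrit, with compound added as 2× dilutions (2.5 μM to 20 nM) for 72 h. Fixed, Triton-permeabilized cells were stained with SYTOX Green (5 μM final), and DNA content was measured by flow cytometry to derive IC50.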

[2] = tested on: 3T3 cells; assay: Cytotoxicity against 3T3 cells
[3] = tested on: HepG2 cells; assay: Cytotoxicity against HepG2 cells

- IC50 [1]: > 2 µM
SMILES: NCCc1cccc(-c2ccc(-c3cccc(CCN)c3)o2)c1 [Compound 237]
- EC50 [2]: 2 µM
- EC50 [3]: 222 µM

- IC50 [1]: 0.109 µM
SMILES: N=C(N)NCCc1cccc(-c2ccc(-c3cccc(CCNC(=N)N)c3)s2)c1 [Compound 238]
- EC50 [2]: 108 µM
- EC50 [3]: 310 µM

- IC50 [1]: 0.102 µM
SMILES: N=C(N)NCCc1cccc(-c2ccc(-c3cccc(CCNC(=N)N)c3)cc2)c1 [Compound 239]
- EC50 [2]: 149 µM
- EC50 [3]: 288 µM

- IC50 [1]: 0.121 µM
SMILES: N=C(N)NCCc1cccc(-c2ccc(-c3cccc(CCNC(=N)N)c3)o2)c1 [Compound 240]
- EC50 [2]: 461 µM
- EC50 [3]: 904 µM

- IC50 [1]: > 2 µM
SMILES: NCCCOc1cccc(-c2ccc(-c3cccc(OCCCN)c3)s2)c1 [Compound 241]
- EC50 [2]: 34 µM
- EC50 [3]: 38 µM

- IC50 [1]: > 2 µM
SMILES: NCCc1cccc(-c2cnc(-c3cccc(CCN)c3)s2)c1 [Compound 242]
- EC50 [2]: 71 µM
- EC50 [3]: 584 µM

- IC50 [1]: 0.058 µM
SMILES: N=C(N)NCCc1cccc(-c2cnc(-c3cccc(CCNC(=N)N)c3)s2)c1 [Compound 243]
- EC50 [2]: 523 µM
- EC50 [3]: 723 µM

- IC50 [1]: 0.149 µM
SMILES: N=C(N)NCCCOc1cccc(-c2ccc(-c3cccc(OCCCNC(=N)N)c3)s2)c1 [Compound 244]
- EC50 [2]: 20 µM
- EC50 [3]: 19 µM

- IC50 [1]: 0.541 µM
SMILES: Cn1c(-c2cccc(CCN)c2)cnc1-c1cccc(CCN)c1 [Compound 245]
- EC50 [2]: > 1000 µM
- EC50 [3]: > 1000 µM

- IC50 [1]: 0.005 µM
SMILES: Cn1c(-c2cccc(CCNC(=N)N)c2)cnc1-c1cccc(CCNC(=N)N)c1 [Compound 246]
- EC50 [2]: > 1000 µM
- EC50 [3]: > 1000 µM

- IC50 [1]: 0.034 µM
SMILES: NCCc1ccc(-c2ccc(-c3ccc(CCN)cc3)s2)cc1 [Compound 247]
- EC50 [2]: < 14 µM
- EC50 [3]: 74 µM

- IC50 [1]: 0.028 µM
SMILES: NCCc1ccccc1-c1ccc(-c2ccccc2CCN)s1 [Compound 249]
- EC50 [2]: 7 µM
- EC50 [3]: 46 µM

- IC50 [1]: 0.556 µM
SMILES: NCCc1cccc(-c2cn(-c3cccc(CCN)c3)nn2)c1 [Compound 250]
- EC50 [2]: > 1000 µM
- EC50 [3]: > 1000 µM

- IC50 [1]: 0.012 µM
SMILES: N=C(N)NCCc1ccccc1-c1ccc(-c2ccccc2CCNC(=N)N)s1 [Compound 251]
- EC50 [2]: 559 µM
- EC50 [3]: 692 µM

- IC50 [1]: 0.059 µM
SMILES: N=C(N)NCCc1cccc(-c2cn(-c3cccc(CCNC(=N)N)c3)nn2)c1 [Compound 256]
- EC50 [2]: > 1000 µM
- EC50 [3]: > 1000 µM

- IC50 [1]: > 0.1 µM
SMILES: CN1CCN(c2ccc(-c3ccc(-c4ccc(N5CCN(C)CC5)cc4)s3)cc2)CC1 [Compound 260]
- EC50 [2]: > 1000 µM
- EC50 [3]: > 1000 µM

- IC50 [1]: > 0.1 µM
SMILES: Cn1c(-c2ccc(CCCN)cc2)cnc1-c1ccc(CCCN)cc1 [Compound 265]
- EC50 [2]: > 1000 µM
- EC50 [3]: > 1000 µM

- IC50 [1]: 0.059 µM
SMILES: N=C(N)NCCCc1ccc(-c2ccc(-c3ccc(CCCNC(=N)N)cc3)s2)cc1 [Compound 266]
- EC50 [2]: 38 µM
- EC50 [3]: 197 µM

- IC50 [1]: 0.029 µM
SMILES: Cn1c(-c2ccc(CCCNC(=N)N)cc2)cnc1-c1ccc(CCCNC(=N)N)cc1 [Compound 267]
- EC50 [2]: 651 µM
- EC50 [3]: 823 µM

- IC50 [1]: 0.087 µM
SMILES: O=C(Nc1ccc(SCCNC2=NCCN2)c(C(F)(F)F)c1)Nc1ccc(SCCNC2=NCCN2)c(C(F)(F)F)c1 [Compound 268]
- EC50 [2]: 74 µM
- EC50 [3]: 447 µM

- IC50 [1]: 0.32 µM
SMILES: N=C(N)NCCc1cccc(NC(=O)Nc2cccc(CCNC(=N)N)c2)c1 [Compound 269]
- EC50 [2]: > 1000 µM
- EC50 [3]: > 1000 µM

- IC50 [1]: 0.029 µM
SMILES: N=C(N)N1CCC(Oc2ccc(NC(=O)Nc3ccc(OC4CCN(C(=N)N)C4)c(C(F)(F)F)c3)cc2C(F)(F)F)C1 (stereo not drawn) [Compound 271]
- EC50 [2]: 172 µM
- EC50 [3]: 347 µM

- IC50 [1]: 0.038 µM
SMILES: N=C(N)NCCSc1ccc(NC(=O)Nc2ccc(OC3CCN(C(=N)N)C3)c(C(F)(F)F)c2)cc1C(F)(F)F (stereo not drawn) [Compound 272]
- EC50 [2]: 65 µM
- EC50 [3]: 214 µM

- IC50 [1]: > 2 µM
SMILES: NCCCSc1ccc(NC(=O)Nc2ccc(SCCCN)c(C(F)(F)F)c2)cc1C(F)(F)F [Compound 274]
- EC50 [2]: 72 µM
- EC50 [3]: 164 µM

- IC50 [1]: 1.7 µM
SMILES: N=C(N)NCCSc1ccc(NC(=O)Nc2ccc(SCCCN)c(C(F)(F)F)c2)cc1C(F)(F)F [Compound 275]
- EC50 [2]: 124 µM
- EC50 [3]: 342 µM

More lines, now with the values behind:

SMILES: N=C(N)NCCc1cccc(NC(=O)c2cc(C(=O)Nc3cccc(CCNC(=N)N)c3)nc(SCCN)n2)c1 [Compound 182]
- IC50 [1]: 0.56 µM
- EC50 [2]: 330 µM
- EC50 [3]: 345 µM

SMILES: O=C(Nc1ccc(O[C@@H]2CCNC2)c(C(F)(F)F)c1)c1cc(C(=O)Nc2ccc(O[C@@H]3CCNC3)c(C(F)(F)F)c2)ncn1 [Compound 187]
- IC50 [1]: 0.041 µM
- EC50 [2]: 42 µM
- EC50 [3]: 130 µM

SMILES: Nc1cccc(NC(=O)c2cc(C(=O)Nc3cccc(N)n3)ncn2)n1 [Compound 189]
- IC50 [1]: > 2 µM
- EC50 [2]: > 1000 µM
- EC50 [3]: > 1000 µM

SMILES: N=C(N)N1CC[C@@H](Oc2ccc(NC(=O)c3cc(C(=O)Nc4ccc(O[C@@H]5CCN(C(=N)N)C5)c(C(F)(F)F)c4)ncn3)cc2C(F)(F)F)C1 [Compound 190]
- IC50 [1]: 0.026 µM
- EC50 [2]: 33 µM
- EC50 [3]: 41 µM

SMILES: CC(C)(C)c1cc(NC(=O)c2cccc(C#N)c2)c(SCCN)c(NC(=O)c2cc(C(=O)Nc3cc(C(C)(C)C)cc(NC(=O)c4cccc(C#N)c4)c3SCCN)ncn2)c1 [Compound 198]
- IC50 [1]: 0.005 µM
- EC50 [2]: 7 µM
- EC50 [3]: 30 µM

SMILES: O=C(Nc1ccc(OC2CCNCC2)cc1)c1cc(C(=O)Nc2ccc(OC3CCNCC3)cc2)ncn1 [Compound 199]
- IC50 [1]: 0.01 µM
- EC50 [2]: 192 µM
- EC50 [3]: 353 µM

SMILES: CN(C)CCSc1ccc(NC(=O)c2cc(C(=O)Nc3ccc(SCCN(C)C)cc3)ncn2)cc1 [Compound 202]
- IC50 [1]: 0.007 µM
- EC50 [2]: 632 µM
- EC50 [3]: 648 µM

SMILES: O=C(Nc1ccc(OC2CCNC2)c(F)c1)c1cc(C(=O)Nc2ccc(OC3CCNC3)c(F)c2)ncn1 (stereo not drawn) [Compound 209]
- IC50 [1]: 0.066 µM
- EC50 [2]: 431 µM
- EC50 [3]: 516 µM

SMILES: O=C(Nc1ccc(N2CCNCC2)cc1)c1cccc(C(=O)Nc2ccc(N3CCNCC3)cc2)n1 [Compound 211]
- IC50 [1]: > 0.1 µM
- EC50 [2]: > 1000 µM
- EC50 [3]: > 1000 µM

SMILES: CN(C)C1CCN(c2ccc(NC(=O)c3cc(C(=O)Nc4ccc(N5CCC(N(C)C)CC5)cc4)ncn3)cc2)CC1 [Compound 213]
- IC50 [1]: 0.035 µM
- EC50 [2]: 244 µM
- EC50 [3]: 51 µM

SMILES: Nc1cc(NC(=O)c2cc(C(=O)Nc3ccc(N4CCNCC4)c(F)c3)ncn2)ccc1N1CCNCC1 [Compound 218]
- IC50 [1]: 0.056 µM
- EC50 [2]: 46 µM
- EC50 [3]: 233 µM

SMILES: NCCSc1nc(-c2cccc(CCN)c2)cc(-c2cccc(CCN)c2)n1 [Compound 220]
- IC50 [1]: 1.55 µM
- EC50 [2]: > 1000 µM
- EC50 [3]: > 1000 µM

SMILES: NCCc1cccc(-c2cncc(-c3ccc(-c4cncc(-c5cccc(CCN)c5)c4)s3)c2)c1 [Compound 223]
- IC50 [1]: 0.516 µM
- EC50 [2]: 18 µM
- EC50 [3]: 82 µM

SMILES: NCCCOc1cccc(-c2cncc(-c3ccc(-c4cncc(-c5cccc(OCCCN)c5)c4)s3)c2)c1 [Compound 225]
- IC50 [1]: 0.461 µM
- EC50 [2]: 35 µM
- EC50 [3]: 179 µM

SMILES: N=C(N)NCCCOc1cccc(-c2cncc(-c3ccc(-c4cncc(-c5cccc(OCCCNC(=N)N)c5)c4)s3)c2)c1 [Compound 227]
- IC50 [1]: 0.65 µM
- EC50 [2]: 54 µM
- EC50 [3]: 117 µM

SMILES: NCCc1cccc(-c2cc(-c3ccc(-c4cc(-c5cccc(CCN)c5)ncn4)s3)ncn2)c1 [Compound 229]
- IC50 [1]: 0.628 µM
- EC50 [2]: 3 µM
- EC50 [3]: 262 µM

SMILES: N=C(N)NCCc1cccc(-c2cncc(-c3ccc(-c4cncc(-c5cccc(CCNC(=N)N)c5)c4)cc3)c2)c1 [Compound 231]
- IC50 [1]: 0.369 µM
- EC50 [2]: 998 µM
- EC50 [3]: > 1000 µM

SMILES: NCCc1cccc(-c2cncc(-c3ccc(-c4cncc(-c5cccc(CCN)c5)c4)cc3)c2)c1 [Compound 234]
- IC50 [1]: 0.655 µM
- EC50 [2]: > 1000 µM
- EC50 [3]: > 1000 µM

SMILES: NCCc1cccc(-c2ccc(-c3cccc(CCN)c3)cc2)c1 [Compound 235]
- IC50 [1]: > 2 µM
- EC50 [2]: 14 µM
- EC50 [3]: 156 µM

SMILES: NCCc1cccc(-c2ccc(-c3cccc(CCN)c3)s2)c1 [Compound 236]
- IC50 [1]: > 2 µM
- EC50 [2]: < 14 µM
- EC50 [3]: 186 µM
